Assays:
[1] = test system: immune system organs (spleen, lymph nodes and thymus); assay: Organ Weight and Total Cell Recovery, JP-8 exposed mice; type: in vivo, C57B16 mice; design: Spleen Weight / Thymus Weight: unit not given here
Description: (§1) At 24 hours after the last exposure, the animals were sacrificed and the effects of exposure on the immune system examined. Immune organs (spleen, thymus, blood, lymph nodes and bone marrow) were recovered and analyzed for effects on organ weight, total cell numbers, immune cell populations (by differentials), and lymphocyte subpopulations (by flow cytometry). Assays were also performed to examine the effects of exposure on immune function. […] Similar effects on immune cell subpopulations were also observed in lymph nodes. In the thymus it appeared that the immature CD4^+ CD8^+ cells were differentially lost due to exposure. […] However, these effects are prevented or ameliorated by treatment of the animals with Substance P.
Organ Weight and Total Cell Recovery: For each of the immune system organs (spleen, lymph nodes and thymus) the wet weight is determined after removal using a microbalance. After processing of the organs into single cell suspensions the cell numbers and viabilities are determined using trypan blue staining. Histochemical differentials are performed at this time. Cell numbers and viabilities are again determined after centrifugation of the cell suspensions through density gradients to obtain mononuclear cells.

[2] = test system: lymphocyte subpopulations; assay: Flow cytometric analyses (FACS) of immune organs, JP-8 exposed mice; type: in vivo, C57B16 mice
Description: as §1
Flow cytometric analyses (FACS): One- and two-color FACS analyses are performed using a Becton-Dickinson FACStar Plus flow cytometer. Cells are stained with the indicated monoclonal antibodies according to standard procedures (Harris et al., id). Cells alone and cells reacted with conjugated isotype control, irrelevant mAbs are used as controls. Data is presented as the percentage of cells staining positive for each individual mAb.

[3] = JP-8 dose 0 + SP or antagonist aerosol
[4] = JP-8 dose 1000 + SP or antagonist aerosol
[5] = JP-8 dose 0 + antagonist aerosol

COc1ccccc1CN[C@H]1C2CCN(CC2)[C@H]1C(c1ccccc1)c1ccccc1 [CP, CP-96,345, reference compound]
BM Cell Number [1, 3]: 29
LN Cell Number [1, 3]: 9.8
Spleen Cell Number [1, 3]: 16
Spleen Weight [1, 3]: 0.12
Thymus Cell Number [1, 3]: 50
Thymus Weight [1, 3]: 0.12
BM Cell Number [1, 4]: 22
LN Cell Number [1, 4]: 7.1
Spleen Cell Number [1, 4]: 7
Spleen Weight [1, 4]: 0.16
Thymus Cell Number [1, 4]: 75
Thymus Weight [1, 4]: 0.12
BM CD3, cells staining positive [2, 3]: 16%
BM CD4, cells staining positive [2, 3]: 9%
BM CD8, cells staining positive [2, 3]: 7%
BM CD45, cells staining positive [2, 3]: 27%
BM MAC1, cells staining positive [2, 3]: 33%
Spleen CD3, cells staining positive [2, 3]: 32%
Spleen CD4, cells staining positive [2, 3]: 21%
Spleen CD8, cells staining positive [2, 3]: 7%
Spleen CD45, cells staining positive [2, 3]: 24%
Spleen MAC1, cells staining positive [2, 3]: 3%
Thymus CD3, cells staining positive [2, 3]: 18%
Thymus DN, cells staining positive [2, 3]: 13%
Thymus DP, cells staining positive [2, 3]: 75%
Thymus SP4, cells staining positive [2, 3]: 12%
Thymus SP8, cells staining positive [2, 3]: 3%
LN CD3, cells staining positive [2, 5]: 49%
LN CD4, cells staining positive [2, 5]: 25%
LN CD8, cells staining positive [2, 5]: 12%
LN CD45, cells staining positive [2, 5]: 15%
LN MAC1, cells staining positive [2, 5]: 1%
PBL CD3, cells staining positive [2, 5]: 72%
PBL CD4, cells staining positive [2, 5]: 29%
PBL CD8, cells staining positive [2, 5]: 13%
PBL CD45, cells staining positive [2, 5]: 12%
PBL MAC1, cells staining positive [2, 5]: 7%
BM CD3, cells staining positive [2, 4]: 14%
BM CD4, cells staining positive [2, 4]: 7%
BM CD8, cells staining positive [2, 4]: 3%
BM CD45, cells staining positive [2, 4]: 41%
BM MAC1, cells staining positive [2, 4]: 26%
LN CD3, cells staining positive [2, 4]: 95%
LN CD4, cells staining positive [2, 4]: 35%
LN CD8, cells staining positive [2, 4]: 23%
PBL CD3, cells staining positive [2, 4]: 50%
PBL CD4, cells staining positive [2, 4]: 20%
PBL CD8, cells staining positive [2, 4]: 15%
PBL CD45, cells staining positive [2, 4]: 27%
PBL MAC1, cells staining positive [2, 4]: 6%
Spleen CD3, cells staining positive [2, 4]: 34%
Spleen CD4, cells staining positive [2, 4]: 16%
Spleen CD8, cells staining positive [2, 4]: 9%
Spleen CD45, cells staining positive [2, 4]: 26%
Spleen MAC1, cells staining positive [2, 4]: 11%
Thymus CD3, cells staining positive [2, 4]: 17%
Thymus DN, cells staining positive [2, 4]: 12%
Thymus DP, cells staining positive [2, 4]: 65%
Thymus SP4, cells staining positive [2, 4]: 17%
Thymus SP8, cells staining positive [2, 4]: 7%

COc1ccccc1CC(=N)N1C[C@@H]2C(=O)CCC(c3ccccc3)(c3ccccc3)[C@@H]2C1 [RP, MRP-67,580, reference compound]
BM Cell Number [1, 4]: 27
LN Cell Number [1, 4]: 6.8
Spleen Cell Number [1, 4]: 37
Spleen Weight [1, 4]: 0.10
Thymus Cell Number [1, 4]: 72
Thymus Weight [1, 4]: 0.03
BM CD3, cells staining positive [2, 4]: 12%
BM CD4, cells staining positive [2, 4]: 6%
BM CD8, cells staining positive [2, 4]: 5%
BM CD45, cells staining positive [2, 4]: 42%
BM MAC1, cells staining positive [2, 4]: 10%
LN CD3, cells staining positive [2, 4]: 96%
LN CD4, cells staining positive [2, 4]: 41%
LN CD8, cells staining positive [2, 4]: 29%
LN CD45, cells staining positive [2, 4]: 18%
LN MAC1, cells staining positive [2, 4]: 1%
PBL CD3, cells staining positive [2, 4]: 71%
PBL CD4, cells staining positive [2, 4]: 18%
PBL CD8, cells staining positive [2, 4]: 10%
PBL CD45, cells staining positive [2, 4]: 38%
PBL MAC1, cells staining positive [2, 4]: 9%
Spleen CD3, cells staining positive [2, 4]: 47%
Spleen CD4, cells staining positive [2, 4]: 16%
Spleen CD8, cells staining positive [2, 4]: 5%
Spleen CD45, cells staining positive [2, 4]: 39%
Spleen MAC1, cells staining positive [2, 4]: 1%
Thymus CD3, cells staining positive [2, 4]: 16%
Thymus DN, cells staining positive [2, 4]: 10%
Thymus DP, cells staining positive [2, 4]: 70%
Thymus SP4, cells staining positive [2, 4]: 12%
Thymus SP8, cells staining positive [2, 4]: 8%

Reference: patent publication US5998376A, “Substance P treatment for immunostimulation” (priority 1998, dated 1999)
